Measurements taken from patent publication US20250099517A1, “Use of Lactobacillus reuteri Y7 strain for prevention or treatment of ocular diseases” (Taipei Medical University, priority 2023, published 2025).

How the values were obtained:
[1] = tested on: blue light-induced retinal atrophy; assay: SD-OCT quantitative analysis of retina layers, blue light-induced macular disease model; type: in vivo, C57BL/6 mice; conditions: for RPE layer thickness compared with the BL group / ONL (outer nuclear layer) thickness compared with the BL group: Day 35, p<0.05
Experimental: The C57BL/6 mice, which weighed between 23 and 25 g, were divided into seven groups randomly. In each group, the six mice induced by blue light successfully were incorporated in experiments. The samples dissolved in deuterium-depleted water (DDW) were fed to mice through oral tubes once a day. The groups were named and introduced as follows: • (1) Solvent not classified group (NC): The mice were fed with 0.2 ml deuterium-depleted water (DDW) through tubes; • (2) Negative control group (Blue light (BL)): The mice were fed with 0.2 ml deuterium-depleted water (DDW) through tubes and exposed to blue light; • (3) Low-dosage Y7 probiotics group […]): The mice were fed with low-dosage Y7 probiotics (probiotic counts of 1.0×10^8 CFU/ml dissolved in 0.2 ml DDW per day) and exposed to blue light; • (4) High-dosage Y7 probiotics group […]): The mice were fed with high-dosage Y7 probiotics (probiotic counts of 1.0×10^9 CFU/ml dissolved in 0.2 ml DDW per day) and exposed to blue light; • (5) Positive control group (lutein (LU)): The mice were fed with lutein and exposed to blue light. The recommended human dosage of lutein is 30 mg. The mouse cage (48×25×20 cm) placed inside a stainless ventilated box was equipped with blue light boards as blue light sources around and above. In the experiment of animals exposed to blue light, six-week-old mice staying in the mouse cage were fed with drinking water as well as fodders and exposed to 400 Lux blue light illumination under the light-dark cycle of 12-hour light and 12-hour dark. The experiment was aimed at causing mice' late dry macular disease induced by chronic light injuries for simulating a human being's macular disease after long-term exposure to short-wavelength blue light from 3C products in daily life. The OCT image system (Phoenix Research Laboratories, San Ramon, CA) used in the experiment is constructed based on the principle of spectral-domain optical coherence tomography. In the system, the computed tomography is divided into five layers, that is, Layer 1: the distance from the Ganglion cell layer (GY7L) to the outer plexiform layer (OPL); Layer 2: outer nuclear layer (ONL); Layer 3: the distance between the inner segment (IS) and the outer segment (OS); Layer 4: the distance from IS/OS to RPE; Layer 5: the total retinal thickness from the nerve fiber layer (NFL) to the lower edge of the RPE layer. The five layers were taken for the quantitative analysis by InSight XL (Phoenix Research Laboratories, San Ramon, CA). SD-OCT was used in checking lesions after exposure to blue light such as retinal atrophy and edema on a retina structure. According to the quantitative SD-OCT analysis, changes in all layers of a retina during the experiment were clearly inspected and no lesion like atrophy and edema was detected in any group before the experiment, as show in FIG. 5. Atrophy at the outer nuclear layer (ONL) of mice in the BL group was observed on Day 35, as shown by the arrow in FIG. 3a.

[2] = tested on: total retinal thickness; assay: H&E sections of retinal tissues, total retinal thickness by ImageJ; type: in vivo, C57BL/6 mice; conditions: Day 35, p<0.05
Experimental: The C57BL/6 mice, which weighed between 23 and 25 g, were divided into seven groups randomly. In each group, the six mice induced by blue light successfully were incorporated in experiments. The samples dissolved in deuterium-depleted water (DDW) were fed to mice through oral tubes once a day. The groups were named and introduced as follows: • (1) Solvent not classified group (NC): The mice were fed with 0.2 ml deuterium-depleted water (DDW) through tubes; • (2) Negative control group (Blue light (BL)): The mice were fed with 0.2 ml deuterium-depleted water (DDW) through tubes and exposed to blue light; • (3) Low-dosage Y7 probiotics group […]): The mice were fed with low-dosage Y7 probiotics (probiotic counts of 1.0×10^8 CFU/ml dissolved in 0.2 ml DDW per day) and exposed to blue light; • (4) High-dosage Y7 probiotics group […]): The mice were fed with high-dosage Y7 probiotics (probiotic counts of 1.0×10^9 CFU/ml dissolved in 0.2 ml DDW per day) and exposed to blue light; • (5) Positive control group (lutein (LU)): The mice were fed with lutein and exposed to blue light. The recommended human dosage of lutein is 30 mg. The mouse cage (48×25×20 cm) placed inside a stainless ventilated box was equipped with blue light boards as blue light sources around and above. In the experiment of animals exposed to blue light, six-week-old mice staying in the mouse cage were fed with drinking water as well as fodders and exposed to 400 Lux blue light illumination under the light-dark cycle of 12-hour light and 12-hour dark. The experiment was aimed at causing mice' late dry macular disease induced by chronic light injuries for simulating a human being's macular disease after long-term exposure to short-wavelength blue light from 3C products in daily life. The eyes of a mouse sacrificed after the experiment on Day 35 were taken out for H&E stains. The section of a retinal tissue was checked for any change in each layer of a sacrificed mouse's retina and compared with experimental results of SD-OCT. The images for a fraction of retina below the pupil vertically and nearest to optic nerves were captured from a section through the 200× magnification, as shown in FIG. 6a.

Row | Molecule | RPE layer thickness compared with the BL group ([1]; LU lutein group) | thickness of a retina after long-term exposure to blue light ([1]; lutein) | total retinal thickness compared with the BL group ([2]; LU lutein group) | total retinal thickness compared with the NC group ([2]; LU lutein group) | ONL (outer nuclear layer) thickness compared with the BL group ([1]; Y7H high-dosage group) | RPE layer thickness compared with the BL group ([1]; Y7H high-dosage group) | ONL (outer nuclear layer) thickness compared with the BL group ([1]; Y7L low-dosage group) | RPE layer thickness compared with the BL group ([1]; Y7L low-dosage group) | thickness of a retina after long-term exposure to blue light ([1]; high-dosage Y7 probiotics) | thickness of a retina after long-term exposure to blue light ([1]; low-dosage Y7 probiotics) | total retinal thickness compared with the BL group ([2]; Y7H high-dosage group) | total retinal thickness compared with the NC group ([2]; Y7H high-dosage group) | total retinal thickness compared with the BL group ([2]; Y7L low-dosage group) | total retinal thickness compared with the NC group ([2]; Y7L low-dosage group)
1 | CC1=C[C@H](O)CC(C)(C)[C@H]1/C=C/C(C)=C/C=C/C(C)=C/C=C/C=C(C)/C=C/C=C(C)/C=C/C1=C(C)C[C@@H](O)CC1(C)C [lutein, reference compound] | significantly thicker | effectively maintained | significant difference | decreased significantly | – | – | – | – | – | – | – | – | – | –
2 | Lactobacillus reuteri Y7 [Y7 probiotics] | – | – | – | – | significant difference | significantly thicker | significant difference | significantly thicker | effectively maintained | effectively maintained | significant difference | decreased significantly | significant difference | decreased significantly
